≈ marks a conversion by molar mass, not a printed value.
Tested on: Mycobacterium tuberculosis
Experiment: Antitubercular activity against multidrug-resistant Mycobacterium tuberculosis assessed as growth inhibition at 0.3125 to 5 ug/mL after 7 days by resazurin reduction test
Type: functional
Conditions: 168 h

Row | SMILES | MIC [µg/mL]
1 | Cc1c(CCCNC(=O)CCc2c[nH]c3ccc(Cl)cc23)c2cc(OC(F)(F)F)ccc2n1C | > 50
2 | Cn1cc(CCC(=O)NCCCc2c[nH]c3ccc(OC(F)(F)F)cc23)c2cc(Cl)ccc21 | 6.25 (≈ 13.1 µM)
3 | Cc1c(CNC(=O)CCc2cn(C)c3ccc(Cl)cc23)c2cc(OC(F)(F)F)ccc2n1C | > 50
4 | Cn1cc(CCC(=O)NCc2c[nH]c3ccc(Cl)cc23)c2cc(Cl)ccc21 | 6.25 (≈ 15.6 µM)
5 | Cn1cc(CCC(=O)NCc2c[nH]c3ccc(OC(F)(F)F)cc23)c2cc(Cl)ccc21 | 6.25 (≈ 13.9 µM)
6 | Cn1cc(CNC(=O)CCc2c[nH]c3ccc(Cl)cc23)c2cc(Cl)ccc21 | > 50
7 | Cn1cc(CCC(=O)NCc2cn(C)c3ccc(Cl)cc23)c2cc(Cl)ccc21 | > 50
8 | O=C(CCc1c[nH]c2ccc(Cl)cc12)NCc1c[nH]c2ccc(OC(F)(F)F)cc12 | > 50
9 | CO[C@H]1/C=C/O[C@@]2(C)Oc3c(C)c(O)c4c(O)c(c(/C=N/N5CCN(C)CC5)c(O)c4c3C2=O)NC(=O)/C(C)=C\C=C\[C@H](C)[C@H](O)[C@@H](C)[C@@H](O)[C@@H](C)[C@H](OC(C)=O)[C@@H]1C [RIFAMPIN] | 25 (≈ 30.4 µM)
10 | Cn1cc(CCCNC(=O)CCc2c[nH]c3ccc(Cl)cc23)c2cc(OC(F)(F)F)ccc21 | 12.5 (≈ 26.2 µM)
11 | Cn1cc(CCCNC(=O)CCc2cn(C)c3ccc(Cl)cc23)c2cc(Cl)ccc21 | 25 (≈ 56.5 µM)
12 | Cc1c(CCCNC(=O)CCc2cn(C)c3ccc(Cl)cc23)c2cc(OC(F)(F)F)ccc2n1C | 1.25 (≈ 2.47 µM)
13 | Cc1[nH]c2ccc(OC(F)(F)F)cc2c1CNC(=O)CCc1cn(C)c2ccc(Cl)cc12 | > 50
14 | Cc1[nH]c2ccc(OC(F)(F)F)cc2c1CCCNC(=O)CCc1c[nH]c2ccc(Cl)cc12 | > 50
15 | Cc1c(CNC(=O)CCc2c[nH]c3ccc(Cl)cc23)c2cc(OC(F)(F)F)ccc2n1C | > 50
16 | Cc1[nH]c2ccc(OC(F)(F)F)cc2c1CNC(=O)CCc1c[nH]c2ccc(Cl)cc12 | 6.25 (≈ 13.9 µM)
17 | NNC(=O)c1ccncc1 [ISONIAZID] | 12.5 (≈ 91.1 µM)
18 | Cn1cc(CCC(=O)NCCCc2c[nH]c3ccc(Cl)cc23)c2cc(Cl)ccc21 | 2.5 (≈ 5.84 µM)
19 | O=C(CCc1c[nH]c2ccc(Cl)cc12)NCc1c[nH]c2ccc(Cl)cc12 | 6.25 (≈ 16.2 µM)

From ChEMBL document CHEMBL3044921, “Synthesis, characterization, and SAR studies of new (1H-indol-3-yl)alkyl-3-(1H-indol-3-yl)propanamide derivatives as possible antimicrobial and antitubercular agents” (2013)
